Earlier results in patent US9181529B2, “Titration of differentiation medium components” (Cellular Dynamics International, Inc., priority 2010, dated 2015).

Experiments:
[1] = tested on: ROCK2; details: ATP-competitive, read-out: IC50 ROCK1/ROCK2
[2] = tested on: pluripotent stem cell-derived cardiomyocytes

Row | SMILES | chronotropic effect [2] | other results
2 | CNC[C@H](O)c1cccc(O)c1 [phenylephrine] | positive chronotropic effect | –
3 | COc1ccc([C@@H]2Sc3ccccc3N(CCN(C)C)C(=O)[C@@H]2OC(C)=O)cc1 [diltiazem] | – | contractile activity [2]: inhibits contractile activity in a dose-dependent manner
4 | CC(C)NCC(O)c1ccc(O)c(O)c1 (stereo not shown) [isoprenaline] | positive chronotropic effect | –
